# Laboratory results from patent publication US20250346599A1, “TRICYCLIC PHTHALAZINONE PARP INHIBITORS AND METHODS OF USE” (Valo Health, Inc., priority 2022, published 2025).
# Key:
# [1] = biological target: PARP1 enzyme (Homo sapiens (Human), UniProt P09874); assay: PARP Mass Spectroscopy Assay (PARP1 enzymatic assay, nicotinamide detection); format: biochemical; settings: 5 nM PARP1, 5 uM β-NAD, 60 min at RT, NAM by mass spectrometry
# Description: Materials and Reagents: The PARP1 enzyme was purchased from BPS Bioscience (cat #80501). Tris-HCl, pH 8.0 was purchased from Corning (cat #46-031-CM). Magnesium chloride was purchased from Thermo Fisher Scientific (previously Honeywell Fluka, cat #63020-1L). All other assay components, activated DNA (cat #D4522), core histones (cat #SRP6590), β-Nicotinamide adenine dinucleotide (β-NAD—cat #N8285), 3ABA PARP1 small molecule inhibitor (from the PARP1 Enzyme Activity Assay kit, cat #17-10149), Sodium Chloride (NaCl, cat #56546-1L), Triton X-100 (cat #93443), Dithiothreitol (DTT, cat #43816-250 ML) were all purchased from Millipore Sigma.
# Assay Buffer: The assay buffer includes the following reagents: 50 mM Tris-HCl pH 8.0, 50 mM NaCl, 10 mM, MgCl2, 0.01% Triton X-100, and 1 mM DTT.
# PARP1 enzymatic assays were performed in 384-well plates in a total volume of 20 μL in the assay buffer. For concentration response curves, compounds were serially diluted 3-fold from 2 mM highest concentration […] to generate a 10-point curve, and 125 nL was transferred to the assay plate using the Echo acoustic dispenser for a final concentration range of 26.6 μM to […] in 10 μL reaction. Five microliters of 10 nM PARP1 enzyme and 100 nM core histones (2×) mix were added to the assay plates and pre-incubated for 30 mins at room temperature (RT). The reaction was initiated by the addition of a 5 μL of 10 uM β-NAD plus 0.02 mg/mL activated DNA (2×) mix. The reaction is incubated for 60 min at RT. The final concentration of the PARP1 enzyme and substrate concentrations were 5 nM and 5 uM, respectively. The positive control (high signal) and negative control (low signal) wells had 125 nL of DMSO in place of compounds. After the incubation is complete, the reaction is stopped by the addition of 10 μL of 10 uM of the 3ABA PARP1 inhibitor, incubated for 5 min at RT, and placed in the −80 C freezer for shipment to the Valo Health site in Branford Connecticut where mass spectrometry will be used to directly detect quantities of nicotinamide (NAM).
# The percent inhibition of enzyme activity was calculated according to the following equation: […]
# The values of Ssample, Shigh, and Slow in the equation refer to the NAM concentration detected in the assay wells, high control wells, and low control wells, respectively. To determine inhibitor IC50 values, % inhibition of the CRCs (concentration response curves) was fitted to the standard single-site four-parameter logistic equation.
# [2] = biological target: human MDR1 (P-glycoprotein; P-gp) (Homo sapiens (Human), UniProt P08183); assay: bi-directional MDCK-MDR1 permeability assay; format: in vitro ADME; settings: for Papp A→B: dog; for Papp A→B / efflux ratio: MDCK-MDR1; for Papp A→B / MDCK-MDR1 Papp A→B (10^−6 cm/s): apical to basolateral direction; for efflux ratio: human, read-out: MDCK-MDR1 ER; for efflux ratio / MDCK-MDR1 ER: efflux ratio B→A/A→B
# Chain of human MDR1 (P-glycoprotein; P-gp) (P08183 whole entry): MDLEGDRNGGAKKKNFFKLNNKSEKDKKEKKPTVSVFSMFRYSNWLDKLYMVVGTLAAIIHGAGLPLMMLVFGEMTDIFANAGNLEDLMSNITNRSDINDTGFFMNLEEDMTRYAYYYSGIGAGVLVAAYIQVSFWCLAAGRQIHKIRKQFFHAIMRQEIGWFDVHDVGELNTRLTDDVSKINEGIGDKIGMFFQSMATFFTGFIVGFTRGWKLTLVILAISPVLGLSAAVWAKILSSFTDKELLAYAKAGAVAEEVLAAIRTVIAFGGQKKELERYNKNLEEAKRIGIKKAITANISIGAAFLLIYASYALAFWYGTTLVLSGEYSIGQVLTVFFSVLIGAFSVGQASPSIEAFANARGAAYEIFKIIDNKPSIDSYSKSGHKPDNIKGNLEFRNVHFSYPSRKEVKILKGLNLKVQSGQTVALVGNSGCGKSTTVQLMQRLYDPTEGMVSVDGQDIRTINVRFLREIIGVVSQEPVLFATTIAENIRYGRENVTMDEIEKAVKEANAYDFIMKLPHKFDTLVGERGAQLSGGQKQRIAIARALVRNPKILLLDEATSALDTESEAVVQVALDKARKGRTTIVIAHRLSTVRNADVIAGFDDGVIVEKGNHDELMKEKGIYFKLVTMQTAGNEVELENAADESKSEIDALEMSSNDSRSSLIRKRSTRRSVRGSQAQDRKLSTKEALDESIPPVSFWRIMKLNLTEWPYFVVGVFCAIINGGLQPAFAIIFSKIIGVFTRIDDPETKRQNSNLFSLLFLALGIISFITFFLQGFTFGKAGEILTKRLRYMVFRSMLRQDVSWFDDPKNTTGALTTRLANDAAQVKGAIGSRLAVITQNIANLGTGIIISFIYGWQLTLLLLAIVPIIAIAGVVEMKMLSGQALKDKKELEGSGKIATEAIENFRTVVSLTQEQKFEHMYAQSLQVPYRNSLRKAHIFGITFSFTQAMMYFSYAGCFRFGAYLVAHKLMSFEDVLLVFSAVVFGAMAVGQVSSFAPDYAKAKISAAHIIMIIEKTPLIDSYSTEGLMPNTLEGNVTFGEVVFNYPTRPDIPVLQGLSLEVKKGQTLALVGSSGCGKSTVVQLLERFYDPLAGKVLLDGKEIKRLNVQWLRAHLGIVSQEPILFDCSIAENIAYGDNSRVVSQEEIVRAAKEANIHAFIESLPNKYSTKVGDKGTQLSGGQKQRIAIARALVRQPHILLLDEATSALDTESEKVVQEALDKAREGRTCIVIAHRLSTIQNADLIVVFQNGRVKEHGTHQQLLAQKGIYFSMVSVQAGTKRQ
# Description: The bi-directional assay containing a Mandin Darby canine kidney (MDCK) cell line transfected with human MDR1 gene (P-glycoprotein; P-gp) designed to overexpress the MDR1 efflux transporter, a major efflux transporter at the blood brain barrier (BBB), uses an established method that measures the rate of flux of a compound across polarized cell monolayers. As well appreciated in the art, the data generated from the MDCK-MDR1 permeability assay may be used to predict in vivo absorption of drugs. The bi-directional MDCK-MDR1 permeability assay can identify and quantify levels of active efflux. Screening compounds in both the apical to basolateral direction (A→B) and basolateral to apical direction (B→A) across the cell monolayer provides a ratio of B→A/A→B (efflux ratio; “ER”). Unlike the Caco-2 assay, the MDCK-MDR1 assay is not subject to potential efflux interference by breast cancer resistance protein (BCRP). […] The data may further be used to predict blood brain barrier (BBB) permeability via calculation from the data of log(permeability-surface area product) (“log PS”), well-understood to be predictive of the in vivo log([brain concentration]/[plasma concentration]).
# [3] = in vivo unbound brain to plasma ratio (Kpuu) at steady state; settings: rat, brain and plasma (unbound), continuous intravenous infusion over 24 hours, Sprague Dawley rats, free drug in brain vs plasma
# Method: Compounds of the present technology are predicted to show BBB passage according to internal proprietary predictive models. These predictive models were further verified by in vivo experiments. In particular, in vivo unbound brain to plasma ratio (Kpuu) was measured at steady state by comparison of free drug concentrations (protein binding corrected) in brain and plasma after continuous intravenous infusion in Sprague Dawley rats over 24 hours, where a Kpuu of >0.3 represents good brain exposure of the compound.
# [4] = literature statement; cited from earlier work
# Chain of PARP1 enzyme (P09874 whole entry): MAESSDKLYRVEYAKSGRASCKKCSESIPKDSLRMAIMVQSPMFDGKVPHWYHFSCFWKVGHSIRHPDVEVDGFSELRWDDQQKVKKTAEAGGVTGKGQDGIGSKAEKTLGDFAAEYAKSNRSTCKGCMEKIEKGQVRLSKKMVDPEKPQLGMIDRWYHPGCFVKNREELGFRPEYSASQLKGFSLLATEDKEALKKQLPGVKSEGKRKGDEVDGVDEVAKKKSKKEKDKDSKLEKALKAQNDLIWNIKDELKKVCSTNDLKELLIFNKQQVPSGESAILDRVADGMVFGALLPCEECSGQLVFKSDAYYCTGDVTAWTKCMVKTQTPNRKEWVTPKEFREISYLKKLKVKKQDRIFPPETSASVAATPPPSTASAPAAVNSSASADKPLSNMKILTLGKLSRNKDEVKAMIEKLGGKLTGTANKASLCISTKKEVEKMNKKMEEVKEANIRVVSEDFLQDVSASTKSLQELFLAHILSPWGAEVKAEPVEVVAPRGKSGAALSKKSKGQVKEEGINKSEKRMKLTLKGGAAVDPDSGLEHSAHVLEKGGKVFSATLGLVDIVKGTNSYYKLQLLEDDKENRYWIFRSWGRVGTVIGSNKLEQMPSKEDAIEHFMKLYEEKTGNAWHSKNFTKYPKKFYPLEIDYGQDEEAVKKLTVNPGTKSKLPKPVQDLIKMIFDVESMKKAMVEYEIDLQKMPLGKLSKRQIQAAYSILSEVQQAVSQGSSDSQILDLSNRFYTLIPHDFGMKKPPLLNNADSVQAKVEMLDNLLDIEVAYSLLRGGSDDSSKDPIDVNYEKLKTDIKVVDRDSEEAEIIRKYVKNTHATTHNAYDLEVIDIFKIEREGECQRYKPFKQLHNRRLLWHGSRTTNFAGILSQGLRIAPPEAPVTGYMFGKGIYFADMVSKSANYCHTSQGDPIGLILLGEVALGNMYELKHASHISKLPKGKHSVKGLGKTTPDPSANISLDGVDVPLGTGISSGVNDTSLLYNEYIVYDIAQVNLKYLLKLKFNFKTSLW
SMILES,IC50 [1],Papp A→B [2],efflux ratio [2],Kp uu at 24 h [3],central nervous system (CNS) penetration [4],MDCK-MDR1 Papp A→B (10^−6 cm/s) [2],MDCK-MDR1 ER [2]
"C[C@@H]1Nc2cc(F)cc3c(=O)[nH]nc(c23)[C@H]1c1ccc(F)cc1F [Compound 0174B, (8S,9S)-9-(2,4-difluorophenyl)-5-fluoro-8-methyl-2,7,8,9-tetrahydro-3H-pyrido[4,3,2-de]phthalazin-3-one]",8 nM,13.8 ×10⁻⁶ cm/s,0.654,0.591,–,–,–
NC(=O)c1cccc2cn(-c3ccc([C@@H]4CCCNC4)cc3)nc12 [niraparib],–,–,–,–,do not have good central nervous system (CNS) penetration,–,–
O=c1[nH]nc2c3c(cc(F)cc13)NC[C@H]2c1ccccn1 [Compound 0211A],27 nM,–,–,–,–,9.25 10^−6 cm/s,2.67
Cn1ncnc1[C@H]1c2n[nH]c(=O)c3cc(F)cc(c23)N[C@@H]1c1ccc(F)cc1 [talazoparib],–,–,–,–,do not have good central nervous system (CNS) penetration,–,–
"O=c1[nH]nc2c3c(cc(F)cc13)NCC2c1ccc(F)cc1F (centres unmarked) [Compound 0114-5, 9-(2,4-difluorophenyl)-5-fluoro-2,7,8,9-tetrahydro-3H-pyrido[4,3,2-de]phthalazin-3-one]",32 nM,16.1 ×10⁻⁶ cm/s,0.995,–,–,–,–
CC(C)[C@@H]1Nc2cc(F)cc3c(=O)[nH]nc(c23)[C@H]1c1c(F)cc(F)cc1F [Compound 0221B],19 nM,–,–,–,–,8.48 10^−6 cm/s,1.15
O=c1[nH]nc2c3c(cc(F)cc13)N[C@@H](C1CCC(F)(F)CC1)[C@@H]2c1ccccc1Cl [Compound 0213B],130 nM,–,–,–,–,4.93 10^−6 cm/s,3.33
"C[C@H]1Nc2cc(F)cc3c(=O)[nH]nc(c23)[C@@H]1c1ccc(Cl)c(F)c1 [Compound 0195A, (8R,9R)-9-(4-chloro-3-fluorophenyl)-5-fluoro-8-methyl-2,7,8,9-tetrahydro-3H-pyrido[4,3,2-de]phthalazin-3-one]",21 nM,13.9 ×10⁻⁶ cm/s,0.699,–,–,–,–
CNCc1ccc(-c2[nH]c3cc(F)cc4c3c2CCNC4=O)cc1 [rucaparib],–,–,–,–,do not have good central nervous system (CNS) penetration,–,–
O=c1[nH]nc2c3c(cc(F)cc13)N[C@@H]([C@@H]1CCOC1)[C@@H]2c1ccccc1Cl [Compound 0121D],43 nM,–,–,–,–,3.66 10^−6 cm/s,5.77
"C[C@H]1Nc2cc(F)cc3c(=O)[nH]nc(c23)[C@@H]1c1ccccc1Cl [Compound 0172A, (8R,9R)-9-(2-chlorophenyl)-5-fluoro-8-methyl-2,7,8,9-tetrahydro-3H-pyrido[4,3,2-de]phthalazin-3-one]",10 nM,11 ×10⁻⁶ cm/s,0.658,–,–,–,–
O=C(c1cc(Cc2n[nH]c(=O)c3ccccc23)ccc1F)N1CCN(C(=O)C2CC2)CC1 [olaparib],–,–,–,–,do not have good central nervous system (CNS) penetration,–,–
"C[C@@H]1Nc2cc(F)cc3c(=O)[nH]nc(c23)[C@H]1c1ccc(Cl)c(F)c1 [Compound 0195B, (8S,9S)-9-(4-chloro-3-fluorophenyl)-5-fluoro-8-methyl-2,7,8,9-tetrahydro-3H-pyrido[4,3,2-de]phthalazin-3-one]",26 nM,16.4 ×10⁻⁶ cm/s,0.691,–,–,–,–
"O=c1[nH]nc2c3c(cc(F)cc13)N[C@H](C1CCOCC1)[C@H]2c1ccccc1Cl [Compound 0210B, (11R,12R)-12-(2-chlorophenyl)-7-fluoro-11-(oxan-4-yl)-2,3,10-triazatricyclo[7.3.1.0^{5,13}]trideca-1,5(13),6,8-tetraen-4-one]",142 nM,–,–,–,–,2.27 10^−6 cm/s,9.91
C[C@@H]1Nc2cc(F)cc3c(=O)[nH]nc(c23)[C@@H]1[C@H]1CCCCN1C [Compound 0199C],38 nM,–,–,–,–,0.506 10^−6 cm/s,17.9
O=c1[nH]nc2c3c(cc(F)cc13)NC[C@@H]2c1ccc(Cl)cc1F [Compound 0189B],29 nM,–,–,–,–,15.6 10^−6 cm/s,0.538
C[C@H]1Nc2cc(F)cc3c(=O)[nH]nc(c23)[C@@H]1c1ccc(C#N)cc1F [Compound 0194A],2 nM,–,–,–,–,6.96 10^−6 cm/s,2.22
"O=c1[nH]nc2c3c(cc(F)cc13)NC[C@@H]2c1ccccc1Cl [Compound 0120B, (S)-9-(2-chlorophenyl)-5-fluoro-2,7,8,9-tetrahydro-3H-pyrido[4,3,2-de]phthalazin-3-one]",47 nM,13.3 ×10⁻⁶ cm/s,0.612,–,–,–,–
"O=c1[nH]nc2c3c(cc(F)cc13)NCC2c1ccc(Cl)c(F)c1 (centres unmarked) [Compound 0188-5, 9-(4-chloro-3-fluorophenyl)-5-fluoro-2,7,8,9-tetrahydro-3H-pyrido[4,3,2-de]phthalazin-3-one]",42 nM,11.7 ×10⁻⁶ cm/s,0.522,–,–,–,–
C[C@H]1Nc2cc(F)cc3c(=O)[nH]nc(c23)[C@@H]1c1ccc(Cl)cc1F [Compound 0196A],9 nM,–,–,–,–,13 10^−6 cm/s,0.537
"CN1CCC([C@H]2Nc3cc(F)cc4c(=O)[nH]nc(c34)[C@H]2c2ccc(F)cc2F)CC1 [Compound 0110B, (8R,9S)-9-(2,4-difluorophenyl)-5-fluoro-8-(1-methylpiperidin-4-yl)-2,7,8,9-tetrahydro-3H-pyrido[4,3,2-de]phthalazin-3-one]",45 nM,0.498 ×10⁻⁶ cm/s,30.4,–,–,–,–
"O=c1[nH]nc2c3c(cc(F)cc13)NC[C@H]2c1ccccc1Cl [Compound 0120A, (R)-9-(2-chlorophenyl)-5-fluoro-2,7,8,9-tetrahydro-3H-pyrido[4,3,2-de]phthalazin-3-one]",87 nM,12.9 ×10⁻⁶ cm/s,0.655,–,–,–,–
O=c1[nH]nc2c3c(cc(F)cc13)N[C@H]([C@@H]1CCOC1)[C@H]2c1ccc(F)cc1F [Compound 0115B],190 nM,–,–,–,–,9.05 10^−6 cm/s,2.04
"CN1CCC([C@@H]2Nc3cc(F)cc4c(=O)[nH]nc(c34)[C@H]2c2ccccc2Cl)CC1 [Compound 0116B, (8S,9S)-9-(2-chlorophenyl)-5-fluoro-8-(1-methylpiperidin-4-yl)-2,7,8,9-tetrahydro-3H-pyrido[4,3,2-de]phthalazin-3-one]",123 nM,0.471 ×10⁻⁶ cm/s,30.8,–,–,–,–
"O=c1[nH]nc2c3c(cc(F)cc13)N[C@@H](C1CCOCC1)[C@@H]2c1ccccc1Cl [Compound 0210A, (11S,12S)-12-(2-chlorophenyl)-7-fluoro-11-(oxan-4-yl)-2,3,10-triazatricyclo[7.3.1.0^{5,13}]trideca-1,5(13),6,8-tetraen-4-one]",106 nM,–,–,–,–,2.91 10^−6 cm/s,6.97
